For one compound, adverse events and tolerability results are on record in publication PMC10611619, “[^99mTc]Tc-PentixaTec: development, extensive pre-clinical evaluation, and first human experience” (European Journal of Nuclear Medicine and Molecular Imaging, 2023).

Where a SMILES comes first, the peptide text is derived from it. Side-chain parts run from the residue outwards. [ ]: non-standard residue; d: D form. The star is where a group is joined. 2Nal = N[C@@H](Cc1ccc2ccccc2c1)C(=O)O; dNMeOrn = CN[C@H](CCCN)C(=O)O; 4Abz = Nc1ccc(C(=O)O)cc1; X1 = NCCNCC(CNCCN)C(=O)*; dDap = NC[C@@H](N)C(=O)O

The data set can be described thus: Safety monitoring in patients (adverse events). It counts as in vivo, human. The procedure:
Five patients (age, 48–72 y, median 66 y) with a history of hematological malignancy underwent imaging after intravenous injection of a median of 558 MBq (range, 417–601) [^99mTc]Tc-PentixaTec. […] Safety was assessed by monitoring adverse events after administration of [^99mTc]PentixaTec.

Regarding `C[C@@H](NC(=O)[C@@H](CCCNC(=N)N)NC(=O)[C@@H](CN)NC(=O)C(CNCCN)CNCCN)C(=O)Nc1ccc(C(=O)NCCC[C@@H]2C(=O)N[C@@H](CCCNC(=N)N)C(=O)N[C@@H](Cc3ccc4ccccc4c3)C(=O)NCC(=O)N[C@H](Cc3ccc(O)cc3)C(=O)N2C)cc1` [[^99mTc]Tc-N4-L6-CPCR4, [^99mTc]Tc-N4-dap-r-a-Abz-CPCR4, metal not drawn] (cyclo([dY][dNMeOrn]([4Abz-dA-dR-dDap-X1])R[2Nal]G)), where the note is “five patients”, the adverse events result is “no adverse events were recorded”. Further, the tolerability entry (five patients with hematologic malignancies) was “well tolerated”.
